Laboratory results as given in the METLIN SMRT retention time set (Domingo-Almenara et al. 2019).

Experiment: gradient 5% acetonitrile 3 min, to 50% in 2 min, to 85% in 15 min, held 3 min, 100 µL/min
Details: column: Zorbax Extend-C18 2.1 x 50 mm; eluents: water / acetonitrile, 0.1% formic acid
Procedure, shortened: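 Data were gathered over 3 months by HPLC coupled to a quadrupole time-of-flight mass spectrometer, operated in positive and negative ionization mode. Mixtures of ~100 pure standards ran on a Zorbax Extend-C18 column (2.1 × 50 mm, 1.8 μm) at 100 μL/min, with water and acetonitrile each containing 0.1% formic acid and dead and dwell volumes of 40 μL and 900 μL. Retention time was read from adduct peaks picked by computer and checked manually.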

| Compound | RP-LC retention time [s] |
| --- | --- |
| CCCC(NC(=O)CCc1ccccc1)C(=O)Nc1nc2ccccc2[nH]1 (centres undefined) | 718 |
| CN1C(=O)c2cccn2CC1CNC(=O)Nc1ccccc1 (centres undefined) | 647 |
| CCCCN1CCN(C(=O)c2cn3cc(Cl)ccc3n2)CC1 | 589 |
| O=C(NCCOc1ccc(-c2ccccc2)nn1)c1ccc(=O)[nH]n1 | 600 |
| CCOC(=O)Cc1ccc(NC(=O)N2CCC(n3c(C)nc4cccnc43)C2)cc1 (centres undefined) | 598 |
| O=C(C1CCCCC1)N1CCCN(c2ncccc2-c2nc(C3CC3)no2)CC1 | 1010 |
| Cc1ccc(-c2ccc(N3CCCC(C(=O)NCc4ccc(C(C)C)cc4)C3)nn2)cc1 (centres undefined) | 889 |
| CCCCN(C)c1ccc(NC(=O)CC(C)C)c(C(=O)O)c1 | 729 |
| CCOc1ccc(-c2noc(Cn3cnc4c(oc5ccccc54)c3=O)n2)cc1OC | 916 |
| Cc1ccccc1N1CCN(C(=O)CCC2CCN(c3cc(NC4CC4)ncn3)CC2)CC1 | 768 |
| Cc1ccc(C)c(NC(=O)CN2C(=O)CCCc3cc(S(=O)(=O)N4CCCC4)ccc32)c1 | 918 |
| COc1ccc(N2CC(c3noc(-c4ccccc4Cl)n3)CC2=O)cc1OC (centres undefined) | 880 |
| COc1ccc2c(c1)C1(CCN(C(=O)Nc3ccccc3C)C1)C(=O)N2C (centres undefined) | 750 |
| CCOc1ccc(NC(=O)Cn2c(C)nc3cc4c(cc32)OCCO4)cc1 | 658 |
| CCc1ccc(-c2nc(-c3ccc(-n4ccnc4)nc3)no2)cc1 | 882 |
| Cc1cccc(-n2c(N3CCCC(C(=O)NCc4ccc(C)c(C)c4)C3)nc3ccsc3c2=O)c1 (centres undefined) | 1020 |
| CSc1ccc(CNC(=O)C2CCCN(C(=O)Cc3cccc4ccccc34)C2)cc1 (centres undefined) | 951 |
| Cc1nc2cc3c(cc2n1CC(=O)NCCc1ccc(F)cc1)OCCO3 | 646 |
| O=C(CCn1cnnn1)N1CCC2(CC1)CC(CC(=O)N1CCOCC1)CCO2 (centres undefined) | 585 |
| O=C(Cn1ccc2ccccc21)NCc1ccc(OC(F)(F)F)cc1 | 971 |
| c1ccc(-c2n[nH]c(C3CCCCN3)n2)cc1 (centres undefined) | 574 |
| Cc1sc(-c2cc(C(F)(F)F)on2)cc1S(=O)(=O)N1CCC2(CC1)OCCO2 | 1120 |

| Compound | RP-LC retention time [s] |
| --- | --- |
| CC(NC(=O)c1ccsc1)C(=O)Nc1nc2ccccc2[nH]1 (centres undefined) | 609 |
| COc1ccc(C(=O)N2CCC3(CC2)NC(=O)c2ccc(F)cc2N3C)cc1 | 740 |
| O=C(Cn1ncc2c(N3CCN(c4ccccn4)CC3)ncnc21)Nc1ccc(F)c(Cl)c1 | 650 |
| COCCc1noc(-c2nc(-c3ccc(OC)c(OC)c3)no2)n1 | 892 |
| COC(=O)N1CCN(CCNC(=O)NC2CCCCC2)CC1 | 503 |
| O=C(NCCN1CCOCC1)c1ccc(CS(=O)Cc2cccc(Cl)c2)o1 (centres undefined) | 601 |
| O=C(c1cccc2[nH]ccc12)N1CCCC(c2n[nH]c(C3CC3)n2)C1 (centres undefined) | 606 |
| CCn1cc(C(=O)Nc2ccccc2)c2cccnc21 | 798 |
| Clc1ccccc1-c1noc(Cc2nc(-c3ccccc3)cs2)n1 | 1180 |
| COCCN1C(=O)c2ccc(-c3ccco3)n2CC1(C)C(=O)NCc1ccccc1 (centres undefined) | 814 |
| CC(C)N1CCN(Cc2ccc(C(=O)NCc3ccc(C(F)(F)F)cc3)cc2)C(=O)C1=O | 741 |
| O=C(NCCc1ccccn1)c1cccc(N2CCNC(c3ccccc3)C2)n1 (centres undefined) | 554 |
| Cc1cc(NC(=O)c2c(O)c3cccnc3n(-c3cccc(F)c3)c2=O)ccc1F | 1310 |
| CCC(C(=O)N1CCN(C)CC1)n1c2ccccc2c2cnn(C)c(=O)c21 (centres undefined) | 627 |
| Cc1cc(C)cc(S(=O)(=O)N2CCc3c(c(-c4nnc(-c5ccccc5F)o4)nn3C)C2)c1 | 998 |
| COc1cccc(OC)c1C(=O)Nc1nc(-c2ccc3c(c2)NC(=O)C(C)O3)c(C)s1 (centres undefined) | 866 |
| CCNc1cc(N2CCC(CCC(=O)NCC(C)C)CC2)ncn1 | 602 |
| CC(=O)NCCSc1c(-c2ccc(Cl)cc2)[nH]c2ccccc12 | 800 |
| CCNC(=O)c1n[nH]c2c1CN(C(=O)c1ccc(OC(F)(F)F)cc1)CC2 | 728 |
| COc1cccc(-n2c(N3CCCC(C(=O)NCc4ccc(C)o4)C3)nc3ccsc3c2=O)c1 (centres undefined) | 849 |
| Cc1noc(C)c1C1CCCN1C(=O)NC(C)C (centres undefined) | 656 |

The next lines start with the values.

| RP-LC retention time [s] | Compound |
| --- | --- |
| 836 | CCc1noc(NC(C)=O)c1-c1ccc(C)c(S(=O)(=O)Nc2ccccc2C)c1 |
| 811 | CC(=O)N1CCc2cc(CNS(=O)(=O)c3ccc(Cl)cc3)ccc21 |
| 700 | O=C(C1CCN(S(=O)(=O)N2CCOCC2)CC1)N1CCCC(c2nc(C3CCOCC3)no2)C1 (centres undefined) |
| 1050 | Cc1ccccc1-n1ccn(Cc2nc(-c3ccc(C(C)(C)C)cc3)no2)c(=O)c1=O |
| 913 | COCCN1CCCc2ccc(NC(=O)c3ccc(Br)o3)cc21 |
| 889 | Cc1ccc(Cn2c(=O)c(SCC(=O)NCC3CCCO3)nc3ccccc32)cc1 (centres undefined) |
| 893 | O=C(NCc1ccc(-c2noc(-c3ccc(F)cc3F)n2)s1)C1CC1 |
| 827 | Cc1sc2ccn(C)c(=O)c2c1C(=O)NCc1ccc(F)cc1Cl |
| 762 | COC(=O)c1ccc2c(=O)n(-c3ccc(F)c(Cl)c3)c(N3CCN(c4ccccn4)CC3)nc2c1 |
| 569 | O=C(c1ccoc1)N1CCC(F)(C(=O)NC2CC2)CC1 |
| 568 | CC(=O)N[C@@H]1CCNC[C@@H]1c1nc(-c2ccccc2)no1 |
| 1030 | CCOC(=O)C1CCN(c2ncc(S(=O)(=O)c3ccc(CC)cc3)c(N)n2)CC1 |
| 824 | Cc1ccc(Cn2c(=O)n(CCNC(=O)c3ccc4c(c3)OCO4)c3ncccc32)cc1 |
| 787 | CCc1nc(-c2cc(S(=O)(=O)NCC(=O)N3CCCC3)c(C)s2)no1 |
| 780 | CCOCCCNC(=O)C1CCN(C2=NS(=O)(=O)C(c3ccc(Cl)cc3)=C2C)CC1 |
| 844 | O=C(CN1C(=O)COc2ccc(C(=O)N3CCCCC3)cc21)NC1CCCCCCC1 |
| 603 | CC(=O)NCCc1csc(C2CCCN(C(=O)C3CCOC3)C2)n1 (centres undefined) |
| 684 | CC(=O)Nc1ccc(C(=O)NCc2ccc(C)o2)c(N2CCOCC2)c1 |
| 725 | COc1cccc2cc(-c3nnc(NC(=O)c4ccc5ncsc5c4)o3)oc12 |
| 950 | CCc1nn2c(CNC(=O)c3ccc(C)cc3)c(-c3ccccc3)nc2s1 |
| 861 | COC(=O)Nc1ccc(-c2nc(N3CCOCC3)c3cnn(C4CCN(C(=O)OC)CC4)c3n2)cc1 |
| 1090 | CCOc1ccccc1-n1nnc(C(=O)OCc2nc(-c3ccccc3)oc2C)c1C |
| 754 | Cc1cccc(CNS(=O)(=O)c2ccc3c(c2)CCCC(=O)N3)c1 |

| RP-LC retention time [s] | Compound |
| --- | --- |
| 721 | C=CCN1CC(c2nc3ccccc3n2CC(O)COc2cccc(C)c2)CC1=O (centres undefined) |
| 594 | CNC(=O)N1CCCN(C2=NS(=O)(=O)C(c3ccccc3)=C2C)CC1 |
| 861 | Cc1cc(=O)n(CC(=O)NCc2ccc(F)cc2Cl)c(N)n1 |
| 930 | Cc1nc(-c2csc(S(=O)(=O)N3CCCC(C(=O)Nc4cccc(C#N)c4)C3)c2)no1 (centres undefined) |
| 643 | COc1ccc(NC(=O)N2C[C@@H](F)C[C@H]2C(=O)N2CCCCC2)cc1OC |
| 649 | CCOc1ccccc1CNC(=O)c1ccc2[nH]c3c(c2c1)CN(C(C)=O)CC3 |
| 787 | Cc1ccc2c(c1)C(=O)NC1(CCN(C(=O)Cc3cccc(F)c3)CC1)N2C |
| 1070 | O=C(c1cncc(Br)c1)N1CCc2cc(-c3csc(C4CC4)n3)ccc21 |
| 604 | O=C(c1cc(-c2ccncc2)nc2ccc(Cl)cc12)N1CCN(c2ccccn2)CC1 |
| 864 | O=C(C1CCN(c2nc3ccc(-c4ccc(F)cc4)nc3s2)CC1)N1CCOCC1 |
| 762 | COc1ccc(NC(=O)NCC(=O)N2CCc3ccccc32)c(OC)c1 |
| 723 | COc1ccc(-n2ccn3cc(-c4ccc(OC)c(OC)c4)nc3c2=O)cc1 |
| 621 | CC(=O)Nc1ccc2nc(-c3ccc(Cl)cc3)cc(OCC(N)=O)c2c1 |
| 1010 | CCn1ccc2cc(S(=O)(=O)N3CCCC(C(=O)NC4CCCCC4)C3)ccc21 (centres undefined) |
| 717 | O=C(Nc1cnc(N2CCCC2)nc1)c1ccccc1Br |
| 757 | COc1cccc(C(=O)N(CN2CCCC2=O)c2cccc(C(F)(F)F)c2)c1 |
| 719 | CCC(=O)Nc1c(C)noc1/C=C/c1ccc(S(=O)(=O)Nc2ccc(S(N)(=O)=O)cc2)s1 |
| 750 | Cc1ccc(NC(=O)N2CCC3(CC2)NC(=O)c2ccccc2O3)c(C)c1 |
| 753 | Cc1ccc(Cl)cc1NC(=O)Nc1cccc(-c2ccc(N3CCOCC3)nn2)c1 |
| 846 | O=C(NC1CCCCCC1)C1CCN(C(=O)c2ncn3c2COC(c2ccc(F)cc2)C3)CC1 (centres undefined) |
| 785 | O=C(NCCOc1ccc2c(c1)OCO2)c1ccccc1Cl |
| 879 | Cc1ccc(CNC(=O)CCc2ccc3cc[nH]c3c2)cc1 |
| 995 | CCc1ccc(NC(=O)CSc2nccc(N3CCN(c4cc(C)ccc4C)CC3)n2)cc1 |
